Legend:
Format in all cases: biochemical
Pim-1 = Pim-1 (Homo sapiens (Human), UniProt P11309); experiment: Pim-1 kinase assay; settings: 1 mM ATP, biotin-labeled BAD peptide substrate; read-out: Pim1 IC50
Procedure, shortened: (§1)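 Biotin-BAD peptide ([…]) phosphorylated with 1 mM ATP by 2.5 pM Pim-1 or 1.25 pM Pim-3, 1 h at 25 °C in Tris pH 7.5, MgCl2, DTT buffer. EDTA stop with anti-phospho-BAD (Ser112) antibody and AlphaScreen streptavidin donor/Protein-A acceptor beads; signal read after 1 h dark incubation.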

Pim-3 = Pim-3 (Homo sapiens (Human), UniProt Q86V86); experiment: Pim-3 kinase assay; settings: 1 mM ATP, biotin-labeled BAD peptide substrate; read-out: Pim3 IC50
Procedure, shortened: as §1

Pim-2 = Pim-2 (Homo sapiens (Human), UniProt Q9P1W9); experiment: Pim-2 kinase assay; settings: 1 mM ATP, fluorescein-labeled CREBtide peptide substrate; read-out: Pim2 IC50
Sequence of Pim-2 (Q9P1W9 whole entry): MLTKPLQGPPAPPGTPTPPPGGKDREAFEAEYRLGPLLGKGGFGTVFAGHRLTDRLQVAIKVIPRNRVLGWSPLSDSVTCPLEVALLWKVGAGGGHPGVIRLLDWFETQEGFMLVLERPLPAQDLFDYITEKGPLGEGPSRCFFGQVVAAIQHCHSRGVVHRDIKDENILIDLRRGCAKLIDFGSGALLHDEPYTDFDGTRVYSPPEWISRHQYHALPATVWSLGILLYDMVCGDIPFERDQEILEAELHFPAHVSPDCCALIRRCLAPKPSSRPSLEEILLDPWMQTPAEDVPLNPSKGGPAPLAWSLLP
Procedure, shortened: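 Phosphorylated CREBtide was detected by terbium anti-pSer133 antibody TR-FRET after EDTA quench and 30 min at room temperature. Reactions ran 2 h at 25 °C with 1 mM ATP, 0.05 μM fluorescein-labelled substrate and 1 nM enzyme in pH 7.5 Tris buffer.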

Sequence of Pim-1 (P11309 whole entry): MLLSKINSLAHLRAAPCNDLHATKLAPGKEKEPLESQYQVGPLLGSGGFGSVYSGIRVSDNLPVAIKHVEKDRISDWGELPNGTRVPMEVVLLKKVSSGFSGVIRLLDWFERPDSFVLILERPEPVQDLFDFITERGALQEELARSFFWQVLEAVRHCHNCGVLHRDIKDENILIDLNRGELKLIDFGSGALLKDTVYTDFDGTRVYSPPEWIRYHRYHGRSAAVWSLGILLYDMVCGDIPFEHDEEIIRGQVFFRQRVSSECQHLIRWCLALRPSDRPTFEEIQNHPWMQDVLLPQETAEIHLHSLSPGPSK

Row | Structure (SMILES) | IC50 (Pim-1) | IC50 (Pim-3) | IC50 (Pim-2)
1 | Nc1oc2cc(C3CCOC3)cnc2c1C(=O)Nc1cnccc1N1C[C@@H](N)C[C@@H](C(F)(F)F)C1 (stereo partly drawn) [Example 123, 2-Amino-N-{4-[(3S,5R)-3-amino-5-(trifluoromethyl)piperidin-1-yl]pyridin-3-yl}-6-(tetrahydrofuran-3-yl)furo[3,2-b]pyridine-3-carboxamide] | ≤ 10 nM | ≤ 10 nM | ≤ 10 nM
2 | C[C@H]1CN(c2ccncc2NC(=O)c2c(N)oc3cc(C4CCC4)cnc23)C[C@@H](N)[C@@H]1O [Example 124, 2-Amino-N-{4-[(3R,4R,5S)-3-amino-4-hydroxy-5-methylpiperidin-1-yl]pyridin-3-yl}-6-cyclobutylfuro[3,2-b]pyridine-3-carboxamide] | ≤ 10 nM | ≤ 10 nM | ≤ 10 nM
3 | Nc1oc2cc(C3CCC3)cnc2c1C(=O)Nc1cnccc1N1C[C@@H](N)[C@H](O)[C@@H](C2CC2)C1 [Example 125, 2-Amino-N-{4-[(3R,4R,5S)-3-amino-5-cyclopropyl-4-hydroxypiperidin-1-yl]pyridin-3-yl}-6-cyclobutylfuro[3,2-b]pyridine-3-carboxamide] | ≤ 10 nM | ≤ 10 nM | ≤ 10 nM
4 | CNC(=O)c1ccc(-c2cnc3c(C(=O)Nc4cnccc4N4C[C@@H](N)C[C@@H](C(F)(F)F)C4)c(N)oc3c2)cn1 [Example 126] | ≤ 10 nM | ≤ 10 nM | 10 to 100 nM
5 | CNC(=O)c1ccc(-c2cnc3c(C(=O)Nc4cnccc4N4C[C@H](C)C[C@H](N)C4)c(N)oc3c2)cn1 [Example 127, 2-Amino-N-(4-((3S,5R)-3-amino-5-methylpiperidin-1-yl)pyridin-3-yl)-6-(6-(methylcarbamoyl)pyridin-3-yl)furo[3,2-b]pyridine-3-carboxamide] | ≤ 10 nM | ≤ 10 nM | 10 to 100 nM
6 | Nc1oc2cc(C3CC3)cnc2c1C(=O)Nc1cnccc1N1C[C@@H](N)[C@H](O)[C@@H](C2CC2)C1 [Example 128, 2-Amino-N-(4-((3R,4R,5S)-3-amino-5-cyclopropyl-4-hydroxypiperidin-1-yl)pyridin-3-yl)-6-cyclopropylfuro[3,2-b]pyridine-3-carboxamide] | ≤ 10 nM | ≤ 10 nM | 10 to 100 nM
7 | Nc1oc2cc(C(F)(F)F)cnc2c1C(=O)Nc1cnccc1N1C[C@@H](N)[C@H](O)[C@@H](C2CC2)C1 [Example 129, 2-Amino-N-(4-((3R,4R,5S)-3-amino-5-cyclopropyl-4-hydroxypiperidin-1-yl)pyridin-3-yl)-6-(trifluoromethyl)furo[3,2-b]pyridine-3-carboxamide] | ≤ 10 nM | ≤ 10 nM | 10 to 100 nM
8 | CC(C)c1cnc2c(C(=O)Nc3cnccc3[C@@H]3C[C@H](C)C[C@H](N)C3)c(N)oc2c1 [Example 130, 2-Amino-N-{4-[(1R,3S,5S)-3-amino-5-methylcyclohexyl]pyridin-3-yl}-6-isopropylfuro[3,2-b]pyridine-3-carboxamide] | ≤ 10 nM | ≤ 10 nM | ≤ 10 nM
9 | COCCCc1cnc2c(C(=O)Nc3cnccc3N3C[C@@H](N)C[C@@H](C(F)(F)F)C3)c(N)oc2c1 [Example 131, 2-Amino-N-{4-[(3S,5R)-3-amino-5-(trifluoromethyl)piperidin-1-yl]pyridin-3-yl}-6-(3-methoxypropyl)furo[3,2-b]pyridine-3-carboxamide] | ≤ 10 nM | ≤ 10 nM | ≤ 10 nM
10 | Nc1oc2cc(CCCN3CCOCC3)cnc2c1C(=O)Nc1cnccc1N1C[C@@H](N)C[C@@H](C(F)(F)F)C1 [Example 132, 2-Amino-N-{4-[(3S,5R)-3-amino-5-(trifluoromethyl)piperidin-1-yl]pyridin-3-yl}-6-(3-morpholin-4-ylpropyl)furo[3,2-b]pyridine-3-carboxamide] | ≤ 10 nM | ≤ 10 nM | ≤ 10 nM
11 | C[C@@H]1C[C@H](N)C[C@H](c2ccncc2NC(=O)c2c(N)oc3cc(C4CC4)cnc23)C1 [Example 133, 2-Amino-N-{4-[(1R,3S,5S)-3-amino-5-methylcyclohexyl]pyridin-3-yl}-6-cyclopropylfuro[3,2-b]pyridine-3-carboxamide] | ≤ 10 nM | ≤ 10 nM | ≤ 10 nM
12 | COCCCc1cnc2c(C(=O)Nc3cnccc3N3C[C@H](C)C[C@H](N)C3)c(N)oc2c1 [Example 134, 2-Amino-N-{4-[(3S,5R)-3-amino-5-methylpiperidin-1-yl]pyridin-3-yl}-6-(3-methoxypropyl)furo[3,2-b]pyridine-3-carboxamide] | ≤ 10 nM | ≤ 10 nM | ≤ 10 nM
13 | CN(C)CCCc1cnc2c(C(=O)Nc3cnccc3N3C[C@@H](N)C[C@@H](C(F)(F)F)C3)c(N)oc2c1 [Example 135, 2-Amino-N-{4-[(3S,5R)-3-amino-5-(trifluoromethyl)piperidin-1-yl]pyridin-3-yl}-6-[3-(dimethylamino)propyl]furo[3,2-b]pyridine-3-carboxamide] | ≤ 10 nM | ≤ 10 nM | 10 to 100 nM
14 | Nc1oc2cccnc2c1C(=O)Nc1cnccc1[C@H]1C[C@@H](N)C[C@@H](C(F)(F)F)C1 [Example 136, 2-Amino-N-{4-[(1R,3R,5S)-3-amino-5-(trifluoromethyl)cyclohexyl]pyridin-3-yl}furo[3,2-b]pyridine-3-carboxamide] | ≤ 10 nM | ≤ 10 nM | 10 to 100 nM
15 | C[C@H]1CN(c2ccncc2NC(=O)c2c(N)oc3cc(CCCF)cnc23)C[C@@H](N)[C@@H]1O [Example 137, 2-Amino-N-(4-((3R,4R,5S)-3-amino-4-hydroxy-5-methylpiperidin-1-yl)pyridin-3-yl)-6-(3-fluoropropyl)furo[3,2-b]pyridine-3-carboxamide] | ≤ 10 nM | ≤ 10 nM | ≤ 10 nM
16 | Nc1oc2cc(CCN3CC[C@@H](F)C3)cnc2c1C(=O)Nc1cnccc1N1C[C@@H](N)C[C@@H](C(F)(F)F)C1 [Example 138, 2-Amino-N-{4-[(3S,5R)-3-amino-5-(trifluoromethyl)piperidin-1-yl]pyridin-3-yl}-6-{2-[(3R)-3-fluoropyrrolidin-1-yl]ethyl}furo[3,2-b]pyridine-3-carboxamide] | ≤ 10 nM | ≤ 10 nM | ≤ 10 nM
17 | CC(C)c1cnc2c(C(=O)Nc3cnccc3N3C[C@@H](N)[C@H](O)[C@@H](C)C3)c(N)sc2c1 [Example 139, 2-Amino-N-(4-((3R,4R,5S)-3-amino-4-hydroxy-5-methylpiperidin-1-yl)pyridin-3-yl)-6-isopropylthieno[3,2-b]pyridine-3-carboxamide] | ≤ 10 nM | ≤ 10 nM | ≤ 10 nM
18 | CCCc1cnc2c(C(=O)Nc3cnccc3N3C[C@@H](N)[C@H](O)[C@@H](C)C3)c(N)sc2c1 [Example 140, 2-Amino-N-(4-((3R,4R,5S)-3-amino-4-hydroxy-5-methylpiperidin-1-yl)pyridin-3-yl)-6-propylthieno[3,2-b]pyridine-3-carboxamide] | ≤ 10 nM | ≤ 10 nM | ≤ 10 nM
19 | CC(=O)Nc1cnc2c(C(=O)Nc3cnccc3N3C[C@@H](N)[C@H](O)[C@@H](C)C3)c(N)sc2c1 [Example 141, 6-(Acetylamino)-2-amino-N-{4-[(3R,4R,5S)-3-amino-4-hydroxy-5-methylpiperidin-1-yl]pyridin-3-yl}thieno[3,2-b]pyridine-3-carboxamide] | ≤ 10 nM | ≤ 10 nM | 10 to 100 nM
20 | C[C@H]1CN(c2ccncc2NC(=O)c2c(N)sc3cc(NC(=O)C4CC4)cnc23)C[C@@H](N)[C@@H]1O [Example 142, 2-Amino-N-(4-((3R,4R,5S)-3-amino-4-hydroxy-5-methylpiperidin-1-yl)pyridin-3-yl)-6-(cyclopropanecarboxamido)thieno[3,2-b]pyridine-3-carboxamide] | ≤ 10 nM | ≤ 10 nM | 10 to 100 nM
21 | CC(C)C(=O)Nc1cnc2c(C(=O)Nc3cnccc3N3C[C@@H](N)[C@H](O)[C@@H](C)C3)c(N)sc2c1 [Example 143, 2-Amino-N-(4-((3R,4R,5S)-3-amino-4-hydroxy-5-methylpiperidin-1-yl)pyridin-3-yl)-6-isobutyramidothieno[3,2-b]pyridine-3-carboxamide] | ≤ 10 nM | ≤ 10 nM | 10 to 100 nM
22 | Nc1sc2cc(N3CCOCC3)cnc2c1C(=O)Nc1cnccc1N1C[C@@H](N)C[C@@H](C(F)(F)F)C1 [Example 144, 2-Amino-N-(4-((3S,5R)-3-amino-5-(trifluoromethyl)piperidin-1-yl)pyridin-3-yl)-6-morpholinothieno[3,2-b]pyridine-3-carboxamide] | ≤ 10 nM | ≤ 10 nM | 10 to 100 nM
